Experimental data: US9999616B2 (ZENITH EPIGENETICS LTD., priority 2013, dated 2018)

What was measured:
[1] = test system: c-myc in Human AML MV4-11 cells; assay: Inhibition of cMYC expression (mRNA, real-time PCR) in MV4-11 cells; type: cell-based; conditions: 3 h treatment, cMYC mRNA by real-time PCR
In short: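 MV4-11 cells in IMDM with 10% FBS were treated with increasing compound concentrations (DMSO 0.1%) for 3 h at 37 °C, in triplicate. Isolated mRNA was quantified by one-step TaqMan RT-qPCR, cMYC Ct normalized to cyclophilin, and fold expression given relative to DMSO control.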

[2] = test system: Human AML MV-4-11 cells; assay: Inhibition of cell proliferation in MV4-11 cells (CellTiter Aqueous One); type: cell-based; conditions: MV4-11, 72 h
In short: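 MV4-11 cells, 5×10^4 per well in IMDM with 10% FBS, were exposed to increasing compound concentrations or 0.1% DMSO for 72 h at 37 °C in triplicate. Viability was read by MTS (CellTiter Aqueous One) absorbance at 490 nm after 3-4 h. IC50 was derived from background-corrected signal relative to DMSO.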

[3] = test system: hIL-6 mRNA; assay: Inhibition of hIL-6 mRNA transcription in LPS-stimulated U937 macrophages; type: cell-based, Human; conditions: Homo sapiens, U-937, PMA-differentiated U937 cells, 1 h pretreatment, LPS 3 h, read-out: IL-6 activity
In short: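 PMA-differentiated U937 macrophages (60 ng/mL PMA, 3 days) pretreated 1 h with compound in 0.1% DMSO, then stimulated with 1 ug/mL E. coli LPS for 3 h at 37° C. IL-6 mRNA quantified by one-step TaqMan qRT-PCR, normalized to cyclophilin; fold expression relative to control, triplicate wells.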

[4] = test system: hIL-17 mRNA; assay: Inhibition of hIL-17 mRNA transcription in OKT3-stimulated peripheral blood mononuclear cells; type: cell-based; conditions: human PBMC, OKT3 stimulation 6 h, read-out: IL-17 Activity
In short: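 Human PBMCs in IL-2 (20 ng/ml) medium preincubated 1 h with compound or 0.1% DMSO, then OKT3-stimulated for 6 h at 37 °C. hIL-17 mRNA quantified by one-step TaqMan qRT-PCR, normalized to an internal control, as fold induction relative to control.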

[5] = test system: hApoA-1 mRNA; assay: Up-regulation of hApoA-1 mRNA transcription in Huh7 cells; type: cell-based; conditions: Homo sapiens, Huh-7, EC170 of hApoA-1 mRNA up-regulation, 48 h, read-out: ApoA-1 activity
Protocol: Huh7 cells (2.5×10^5 per well) were plated in a 96-well plate using 100 μL DMEM per well, (Gibco DMEM supplemented with penicillin/streptomycin and 10% FBS), 72 h before the addition of the compound. The cells are treated with increasing concentrations of the compound or DMSO (0.1%), and incubated at 37° C., 5% CO2 for 48 h. Spent media was removed from the Huh-7 cells and placed on ice for immediate use with the “LDH cytotoxicity assay Kit II” from Abcam. The cells remaining in the plate were rinsed with 100 μL PBS. Cells were harvested using the mRNA Catcher PLUS kit according to manufacturer's instructions. The eluted mRNA was then used in a one-step quantitative real-time PCR reaction, using components of the RNA UltraSense™ One-Step Kit (Life Technologies) together with Applied Biosystems TaqMan® primer-probes for hApoA-1 and Cyclophilin. Real-time PCR plates were run on a ViiA™7 real time PCR machine (Applied Biosystems), data was analyzed, normalizing the Ct values for hApoA-1 to an internal control, prior to determining the fold induction of each unknown sample, relative to the control.

[6] = test system: MM1.s cells; assay: In vivo efficacy in multiple myeloma xenograft model using MM1.s cells; parameters: species or system mouse; conditions: mice, oral 25 to 90 mg/kg
Protocol: MM1.s cells (ATCC) were grown under standard cell culture conditions and SCID-Beige strain of female mice age 6-7 weeks were injected with 10×10^6 cells/animal in 100 μL PBS+100 μL Matrigel in the lower left abdominal flank. By approximately day 21 after MM1.s cells injection, mice were randomized based on tumor volume (L×W×H)/2) of average 120 mm^3. Mice were dosed orally with compound at 25 to 90 mg/kg b.i.d and or q.d in EA006 formulation at 10 mL/kg body weight dose volume. Tumor measurements were taken with electronic micro calipers and body weights measured on alternate days beginning from dosing period. The average tumor volumes, percent Tumor Growth Inhibition (TGI) and % change in body weights were compared relative to Vehicle control animals. The means, statistical analysis and the comparison between groups were calculated using Student's t-test in Excel.

| Compound | IC50 [1] | IC50 [2] | IC50 [3] | IC50 [4] | EC170 [5] | In vivo activity [6] |
| --- | --- | --- | --- | --- | --- | --- |
| Cc1noc(C)c1-c1cc(-c2c(C)noc2C)c2nc[nH]c2c1 [Example Compound 1, 4,4′-(1H-benzo[d]imidazole-4,6-diyl)bis(3,5-dimethylisoxazole)] | 300 to 3000 nM | 300 to 3000 nM | ≤ 300 nM | 300 to 3000 nM | 0.3 to 3 µM | Active |
| Cc1nc2c(-c3c(C)noc3C)cc(-c3c(C)noc3C)cc2[nH]1 [Example Compound 6, 4,4′-(2-methyl-1H-benzo[d]imidazole-4,6-diyl)bis(3,5-dimethylisoxazole)] | 300 to 3000 nM | 300 to 3000 nM | 300 to 3000 nM | ≤ 300 nM |  | Active |
| Cc1nc2c(-c3cccnc3C)cc(-c3c(C)noc3C)cc2[nH]1 [Example Compound 41, 3,5-dimethyl-4-(2-methyl-4-(2-methylpyridin-3-yl)-1H-benzo[d]imidazol-6-yl)isoxazole] | 300 to 3000 nM | 300 to 3000 nM | ≤ 300 nM | 300 to 3000 nM | ≤ 0.3 µM | Active |
| Cc1nc2c(-c3c(C)nn(C)c3C)cc(-c3c(C)noc3C)cc2[nH]1 [Example Compound 49, 3,5-dimethyl-4-(2-methyl-4-(1,3,5-trimethyl-1H-pyrazol-4-yl)-1H-benzo[d]imidazol-6-yl)isoxazole] | ≤ 300 nM | 300 to 3000 nM | ≤ 300 nM | ≤ 300 nM | ≤ 0.3 µM |  |
